The subject of data set [1] is isolated rat heart.
Excerpt: Applying this approach, a perfused isolated heart may be inserted into an 11.5 tesla NMR magnet for spectroscopic analysis of high-energy phosphagens (ATP, phosphocreatine, and inorganic phosphate) in combination with collection of heart effluent and tissue, and functional assessment of contractility can be determined as measured by dP/dtmax and dP/dtmin, left ventricular developed pressure, heart rate, etc.
(§1) A heart, in this case isolated from rat and perfused using the Langendorff method, is image guided by 1 H magnetic resonance imaging and magnetic resonance spectroscopy is performed for ^31P found in the high energy phosphogens ATP, phosphocreatine (PCr), and inorganic phosphate (Pi) in an upright 11.7 Tesla NMR at 161.99 MHz (FIGS. 1 and 2).
(§2) The energetic spectra from the whole heart was averaged every 4 minutes before and after drug exposure. PCr, ATP alpha, beta, and gamma, and Pi peak height and area, and pH calculated from the resonance shift in Pi (pHi=pK+log [(go−gB)/gA−go)] […] Heart contractility (left ventricular pressure) and heart rate is simultaneously acquired on an Emka IOX data acquisition system.
^31P spectra is acquired for 20 minutes prior to drug application. The drug of interest is then applied for 1 hour followed by a 20 minute stress test using 0.1 um isoproteranol (a beta agonist) in the presence of the drug which causes increased contractility, relaxation, heart rate, and increased conduction velocity. This step is done to test the energy reserve of the heart after drug application. […] As a positive control, we use FCCP, a mitochondrial uncoupler that inhibits mitochondrial oxidative phosphorylation by disrupting the mitochondrial protein gradient.
The test system of data set [2] is isolated rat heart. The source holds these as a separate data set.
Description: In combination with the functional assessment, whole heart energetics can be determined, measured as the changes in peak levels of ATP, phosphocreatine, and inorganic phosphate using NMR spectroscopy.
as §1, §2
^31P spectra is acquired for 20 minutes prior to drug application. The drug of interest is then applied for 1 hour followed by a 20 minute stress test using 0.1 um isoproteranol (a beta agonist) in the presence of the drug which causes increased contractility, relaxation, heart rate, and increased conduction velocity. This step is done to test the energy reserve of the heart after drug application.
Where [3] appears, read: drug applied for 1 hour, before stress test.
[4] abbreviates: during 20 minute stress test, 0.1 um isoproteranol in the presence of the drug.

“Also recorded” adds a separate entry of the source. Read-outs that look alike come from different tables or passages of the source.

As to `COc1cccc2c1C(=O)c1c(O)c3c(c(O)c1C2=O)C[C@@](O)(C(=O)CO)C[C@@H]3O[C@H]1C[C@H](N)[C@H](O)[C@H](C)O1` [doxorubicin], in the data set with isolated rat heart [1] (doxorubicin 1 and 10 uM), the contractility result is listed as “increases; also recorded: increasing”. Moreover, in the data set with isolated rat heart [2] (doxorubicin 1 and 10 uM), the ATP entry is given as “decreases”, the PCr entry is “decreases” and the “Pi (inorganic phosphate)” value is reported as “decreases”. In the data set on isolated rat heart [2] (doxorubicin 1 and 10 uM, isoproteranol stress test period), the “effects on contractility and energetic parameters in the stress test period” value is “pronounced”. Also, the phosphocreatine entry with isolated rat heart [2] (stress test with isoproteranol, versus control hearts) is given as “pronounced drop”.
Consider “carbony cyanide 4-(trifluoromethoxy) phenylhydrazone [FCCP]”, for which the “contractility (dP/dtmax)” value in the data set with isolated rat heart [1] (setting [3]) is “declines”. Besides, the contractility entry with isolated rat heart [1] (setting [4]) is listed as “increased slightly”. Besides, in the data set with isolated rat heart [2] (setting [3]), the ATPγ peak entry is recorded as “declines”, the PCr peak result is given as “declines” and the Pi peak result was “did not affect”. For the same compound, in the data set on isolated rat heart [2] (setting [4]), the ATPγ peak result is recorded as “declined further”, the PCr peak result was “dropped slightly” and the Pi peak result is “no effect”.

(Values after US9393324B2, “Use of 31P NMR spectroscopy of whole heart energetics for detection of drug-induced cardiotoxicity” (Battelle Memorial Institute, priority 2012, dated 2016).)
